# Experimental data taken from paper PMC6736736 (Molecular microbiology, 2019).
# Tests used:
# [1] = biological target: T1, ZagA (YciC) (Bacillus subtilis, UniProt P94400); test: inhibition of GTP hydrolysis, malachite green assay; assay type: biochemical; conditions: substrate GTP
# [2] = biological target: T1, ZagA (YciC); test: inhibition of ZTP hydrolysis, malachite green assay; assay type: biochemical; conditions: substrate ZTP
# T1 sequence (P94400 whole entry): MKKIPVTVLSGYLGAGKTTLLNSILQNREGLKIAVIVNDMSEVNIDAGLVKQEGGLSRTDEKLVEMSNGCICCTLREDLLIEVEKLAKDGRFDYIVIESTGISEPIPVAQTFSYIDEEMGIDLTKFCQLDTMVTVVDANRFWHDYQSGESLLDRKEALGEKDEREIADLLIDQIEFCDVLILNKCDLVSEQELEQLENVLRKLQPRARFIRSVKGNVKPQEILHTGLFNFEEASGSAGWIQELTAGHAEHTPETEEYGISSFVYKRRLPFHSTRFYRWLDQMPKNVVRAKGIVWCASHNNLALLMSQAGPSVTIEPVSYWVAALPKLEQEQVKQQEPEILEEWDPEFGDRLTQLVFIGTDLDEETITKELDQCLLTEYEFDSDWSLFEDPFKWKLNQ
Compound,inhibition of GTPase activity [1],inhibition of ZTPase activity [2]
NC(=O)c1ncn([C@@H]2O[C@H](COP(=O)(O)O)[C@@H](O)[C@H]2O)c1N [ZMP],"Conversely, ZMP inhibited GTP hydrolysis (Fig 4D)",–
Nc1nc2c(ncn2[C@@H]2O[C@H](COP(=O)(O)OP(=O)(O)NP(=O)(O)O)[C@@H](O)[C@H]2O)c(=O)[nH]1 [GDP-NP],–,"GDP-NP, a non-hydrolyzable analog of GTP, inhibited ZTP hydrolysis"
